SMILES strings stand for the structures. Where a name gives a salt, the structure may show the parent alone.

For data set [1], the target named is T1, h5-HT2C receptor (Homo sapiens, UniProt P28335).
T1 construct: expressed in transfected cells; host or cells: CHO cells
T1 sequence (P28335 33-458): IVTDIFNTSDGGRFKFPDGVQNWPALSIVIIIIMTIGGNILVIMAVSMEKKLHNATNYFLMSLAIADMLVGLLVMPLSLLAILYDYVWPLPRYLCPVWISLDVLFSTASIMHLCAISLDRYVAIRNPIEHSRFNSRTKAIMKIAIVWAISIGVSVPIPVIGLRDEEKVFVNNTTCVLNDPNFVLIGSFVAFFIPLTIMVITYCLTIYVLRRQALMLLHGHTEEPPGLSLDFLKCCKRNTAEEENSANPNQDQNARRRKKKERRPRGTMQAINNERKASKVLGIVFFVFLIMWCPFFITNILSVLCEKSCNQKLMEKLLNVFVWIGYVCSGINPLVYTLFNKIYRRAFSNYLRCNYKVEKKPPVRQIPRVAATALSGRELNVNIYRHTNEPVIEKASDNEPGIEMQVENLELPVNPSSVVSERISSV
Kind of data set: Functional activity, FLIPR calcium assay, CHO cells expressing h5-HT2C. Format: cell-based. As to conditions: for Emax: CHO, read-out: h5-HT2C Relative Efficacy (%); for EC50: FLIPR, CHO cells, Fluo 3-AM. The protocol:
(§1) The functional activity of compounds of formula (I) was assayed using a Fluorimetric Imaging Plate reader (FLIPR) in the following manner.
(§2) CHO cells expressing either the h5-HT2C or h5-HT2A receptors were counted and plated into standard 96 well microtitre plates before the day of testing to give a confluent monolayer. The following day the cells were dye loaded with the calcium sensitive dye Fluo 3-AM by incubation with serum free culture maintenance media containing plumnic acid and Fluo 3-AM dissolved in DMSO at 37° C. in a CO2 incubator at 95% humidity for approximately 90 minutes. Unincorporated dye was removed by washing with Hanks balanced salt solution containing 20 mM HEPES and 2.5 mM probenecid (the assay buffer) using an automated cell washer to leave a total volume of 100 μl/well.
(§3) The drug (dissolved in 50 μl of assay buffer) was added at a rate of 70 μL/sec to each well of the FLIPR 96 well plate during fluorescence measurements. The measurements are taken at 1 sec intervals and the maximum fluorescent signal was measured (approx 10–15 secs after drug addition) and compared with the response produced by 10 μM 5-HT (defined as 100%) to which it is expressed as a percentage response (relative efficacy). Dose response curves were constructed using Graphpad Prism (Graph Software Inc.).

In data set [2] the target is T2, h5-HT2A receptor (Homo sapiens, UniProt P28223).
T2 construct: expressed in transfected cells; host or cells: CHO cells
T2 sequence (P28223 whole entry): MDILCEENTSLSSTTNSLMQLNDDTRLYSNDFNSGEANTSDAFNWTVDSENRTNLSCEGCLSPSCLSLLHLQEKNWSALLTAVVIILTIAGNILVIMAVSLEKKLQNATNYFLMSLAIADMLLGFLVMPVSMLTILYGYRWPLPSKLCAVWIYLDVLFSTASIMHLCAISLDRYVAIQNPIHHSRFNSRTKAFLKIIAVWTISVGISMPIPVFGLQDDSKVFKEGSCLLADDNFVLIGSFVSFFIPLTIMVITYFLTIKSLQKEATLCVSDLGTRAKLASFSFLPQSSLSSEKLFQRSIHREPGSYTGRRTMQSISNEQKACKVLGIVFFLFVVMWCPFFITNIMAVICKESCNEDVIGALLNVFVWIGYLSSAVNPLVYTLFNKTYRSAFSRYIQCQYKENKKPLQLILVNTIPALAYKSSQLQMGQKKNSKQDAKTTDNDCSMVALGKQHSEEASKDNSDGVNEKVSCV
The data set can be described thus: Functional activity, FLIPR calcium assay, CHO cells expressing h5-HT2A. Format: cell-based. The conditions noted are these: for Emax: CHO, read-out: h5-HT2A Relative Efficacy (%); for EC50: FLIPR, CHO cells, Fluo 3-AM. The protocol: as §1, §2, §3

In data set [3] the target is T3, 5-HT2C receptor (Homo sapiens, UniProt P28335).
T3 construct: expressed in transfected cells; host or cells: CHO cell line
T3 sequence (P28335 33-458): T1 sequence (P28335 33-458)
The data set can be described thus: Binding to 5-HT2C receptor, [3H]-5-HT, CHO cell line. As to conditions: read-out: Ki (2C). On the procedure: (§4) The binding of compounds of formula (1) to serotonin receptors was determined in vitro by standard methods. The preparations were investigated in accordance with the assays given hereinafter.
Method (a): For the binding to the 5-HT2C receptor the 5-HT2C receptors were radiolabeled with [^3H]-5-HT. The affinity of the compounds for 5-HT2C receptors in a CHO cell line was determined according to the procedure of D. Hoyer, G. Engel and H. O. Kalknan, European J. Pharmacol., 1985, 118, 13–23.

The target in data set [4] is T4, 5-HT2A receptor (Homo sapiens, UniProt P28223).
T4 construct: expressed in transfected cells; host or cells: CHO cell line
T4 sequence (P28223 whole entry): as above
The data set can be described thus: Binding to 5-HT2A receptor, [125I]-DOI, CHO cell line. The conditions noted are these: read-out: Ki (2A). The protocol: as §4
Method (c): For the binding to the 5-HT2A receptor the 5-HT2A receptors were radiolabeled with [^125I]-DOI. The affinity of the compounds for 5-HT2A receptors in a CHO cell line was determined according to the procedure of D. J. McKenna and S. J. Peroutka, J. Neurosci., 1989, 9/10, 3482–90.

The target of data set [5] is T5, human 5-HT2B receptors (Homo sapiens, UniProt P41595).
T5 construct: expressed in transfected cells; host or cells: CHO cell line
T5 sequence (P41595 whole entry): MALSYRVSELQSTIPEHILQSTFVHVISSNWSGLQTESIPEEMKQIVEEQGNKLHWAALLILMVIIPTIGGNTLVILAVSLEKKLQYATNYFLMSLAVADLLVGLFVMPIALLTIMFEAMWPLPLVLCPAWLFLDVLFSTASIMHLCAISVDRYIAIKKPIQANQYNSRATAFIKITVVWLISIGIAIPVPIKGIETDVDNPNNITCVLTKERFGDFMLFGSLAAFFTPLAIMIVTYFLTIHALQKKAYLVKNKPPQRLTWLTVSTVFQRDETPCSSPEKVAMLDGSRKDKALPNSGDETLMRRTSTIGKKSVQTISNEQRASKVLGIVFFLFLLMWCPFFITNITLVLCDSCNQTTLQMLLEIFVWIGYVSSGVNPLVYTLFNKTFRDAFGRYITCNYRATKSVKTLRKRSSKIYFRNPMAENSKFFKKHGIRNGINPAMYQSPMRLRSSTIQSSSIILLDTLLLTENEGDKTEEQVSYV
Kind of data set: Binding to 5-HT2B receptor, [3H]-5-HT, CHO cell line. As to conditions: read-out: Ki (2B). On the procedure:
as §4
Method (b): For the binding to the 5-HT2B receptor the 5-HT2B receptors were radiolabeled with [3H]-5-HT. The affinity of the compounds for human 5-HT2B receptors in a CHO cell line was determined according to the procedure of K. Schmuck, C. Ullmer, P. Engels and H. Lubbert, FEBS Lett., 1994, 342, 85–90.

For data set [6] the following is noted: prolonged period (greater than 6 months); cited from earlier work.
The test system of data set [7] is rats. As to conditions: cited from earlier work.
For data set [8], the system named is obese male and female subjects. The conditions noted are these: subchronic treatment for a 14 day period; cited from earlier work.
Data set [9] deals with female volunteers. The conditions noted are these: single injection; cited from earlier work.
Where [10] appears, read: maximum fluorescent signal relative to 10 μM 5-HT (defined as 100%).

In the case of `C[C@H](N)CN1CCc2ccc3c(c21)CCS3` [Compound 5, (S)-1-(2,3,7,8-Tetrahydrothieno[2,3-g]indol-1-yl)-2-propylamine fumarate], the figures for the Emax in data set [1] (setting [10]) and in [2] (setting [10]) were 86% and 77%, respectively. For the same compound, the EC50 (in general, the concentration needed to bring the measured effect to its halfway point) worked out at 0.4 nM in [1] and 48 nM in data set [2].
As to `C[C@H](N)CN1CCc2ccc3ccccc3c21` [Compound 1, (S)-1-(Benz[g]indolin-1-yl)-2-propylamine hemi-fumarate], the Ki (commonly a dissociation constant, usually derived from enzyme kinetics or from competition with a known ligand) in data set [3] was determined as 107 nM; in data set [4], 173 nM; in [5] it was 39 nM. Also, the Emax in [1] (setting [10]) stood at 79%; in data set [2] (setting [10]) it was 51%. Also, the half-maximal effective concentration (EC50) in data set [1] came out at 158 nM; in data set [2], 1370 nM.
Turning to `C[C@H](N)CN1CCc2ccc3c(c21)CCO3` [Compound 3, (S)-1-(2,3,7,8-Tetrahydrofuro[2,3-g]indol-1-yl)-2-propylamine fumarate], the Emax in data set [1] (setting [10]) was 94%; in data set [2] (setting [10]) it was 81%. Besides, the EC50 in [1] was found to be 6 nM; in data set [2], 138 nM.
Take `C[C@@H](N)CN1CCc2ccc3ccccc3c21` [Compound 2, (R)-1-(Benz[g]indolin-1-yl)-2-propylamine hemi-fumarate]: in [1] (setting [10]), the Emax was found to be 44%. In addition, the 50% effective concentration (EC50) in data set [1] was 1720 nM; in data set [2] it was above 10000 nM.
With `C[C@H](N)CN1CCc2ccc3c(c21)CCS3` (as salt: fumarate) [Compound 5, (S)-1-(2,3,7,8-Tetrahydrothieno[2,3-g]indol-1-yl)-2-propylamine fumarate], the melting point (in general, the temperature, or range, at which the solid turns liquid) is 188 to 189.5 °C (dec.).
Turning to `C[C@H](N)CN1CCc2ccc3c(c21)CCCO3` (as salt: fumarate) [Compound 4, (S)-1-(2,3,7,8-Tetrahydro-9H-pyrano[2,3-g]indol-1-yl)-2-propylamine fumarate], the melting point lay in the range of 168 to 169 °C.
Consider `C[C@H](N)CN1CCc2ccc3c(c21)OCCO3` (as salt: fumarate) [Compound 6, (S)-1-(2,3,7,8-Tetrahydro-9H-1,4-dioxino[2,3-g]indol-9-yl)2-propylamine fumarate], for which the melting point is 173 to 174 °C (dec.).
As for `C[C@H](N)CN1CCc2ccc3c(c21)CCCO3` [Compound 4, (S)-1-(2,3,7,8-Tetrahydro-9H-pyrano[2,3-g]indol-1-yl)-2-propylamine fumarate], the results for the Emax in [1] (setting [10]) and in data set [2] (setting [10]) were 89% and 66%, respectively. For the same compound, the EC50 in [1] turned out to be 47 nM; in data set [2], 505 nM.
For `C[C@H](N)CN1CCc2ccc3c(c21)CCC3` [Compound 8, (S)-1-[1-(1,2,3,6,7,8-Hexabydrocyclopent[g]indolyl)]-2-propylamine fumarate] the same measures were 69%, 0%, 217 nM and at least 10000 nM.
Regarding `CCC1CN(CC(C)N)c2c1ccc1c2CCO1` (single isomer, unassigned) [Compound 9, [2S3′(R or S)]-1-(3-Ethyl-2,3,7,8-tetrahydrofuro[2,3-g]indol-1-yl)-2-propylamine fumarate], the Emax in data set [1] (setting [10]) is 74%; in data set [2] (setting [10]) it was 22%. Besides, the EC50 in [1] was 50 nM; in data set [2] it was 1140 nM.
As for `CCN[C@@H](C)Cc1cccc(C(F)(F)F)c1` [dexfenfluramine], in data set [6], the “food intake and body weight” value is “decrease food intake and body weight”.
As for `CCC1CN(CC(C)N)c2c1ccc1c2CCO1` (single isomer, unassigned) [Compound 10, [2S,3′(S or R)]-1-(3-Ethyl-2,3,7,8-tetrahydrofuro[2,3-g]indol-1-yl)-2-propylamine fumarate], the EC50 in data set [1] is 51 nM; in data set [2], 403 nM. In addition, the “h5-HT2C Relative Efficacy (%)” value in [1] (setting [10]) is given as 67%. Besides, in data set [2] (setting [10]), the “h5-HT2A Relative Efficacy (%)” value amounted to 15%.
As for `C[C@H](N)CN1CCc2ccc3c(c21)CCO3` (as salt: fumarate) [Compound 3, (S)-1-(2,3,7,8-Tetrahydrofuro[2,3-g]indol-1-yl)-2-propylamine fumarate], the melting point is 215.5 to 217 °C (dec.).
Compound `C[C@H](N)CN1CCc2ccc3c(c21)CCCC3` (as salt: fumarate) [Compound 7, (S)-1-(2,3,6,7,8,9-Hexabydro-1H-benz[g]indol-1-yl)]-2-propylamine, fumarate] registered a melting point of 178 to 182 °C.
Regarding `C[C@H](N)CN1CCc2ccc3c(c21)CCC3` (as salt: fumarate) [Compound 8, (S)-1-[1-(1,2,3,6,7,8-Hexabydrocyclopent[g]indolyl)]-2-propylamine fumarate], the melting point is 182 °C (dec.).
For the compound `C[C@H](N)CN1CCc2ccc3c(c21)OCCO3` [Compound 6, (S)-1-(2,3,7,8-Tetrahydro-9H-1,4-dioxino[2,3-g]indol-9-yl)2-propylamine fumarate], the Ki in data set [3] turned out to be 70 nM; in [4], 223 nM; in data set [5], 218 nM. Further, the results for the Emax in data set [1] (setting [10]) and in data set [2] (setting [10]) were 90% and 71%, respectively. In addition, the figures for the EC50 in data set [1] and in data set [2] were 47 nM and 312 nM, respectively.
For `C[C@H](N)CN1CCc2ccc3c(c21)CCCC3` [Compound 7, (S)-1-(2,3,6,7,8,9-Hexabydro-1H-benz[g]indol-1-yl)]-2-propylamine, fumarate], the Emax came to 68% in data set [1] (setting [10]) and 14% in data set [2] (setting [10]). The EC50 in data set [1] was 440 nM; in data set [2], 1830 nM.
Regarding `CCNC(C)Cc1cccc(C(F)(F)F)c1` (stereo not drawn) [fenfluramine], in [6], the “food intake and body weight” value was “decrease food intake and body weight”.
For the compound `Clc1cccc(N2CCNCC2)c1` [mCPP, m-chlorophenylpiperazine], in data set [7] (rat, in vivo), the “appearance of the behavioural satiety sequence” value is given as “accelerate the appearance of the behavioural satiety sequence”. The “food intake in rats” value in data set [7] (rats) was “reduce food intake”. Also, in data set [8], the “appetite and body weight of obese subjects” value was “decreased the appetite and body weight”. Also, the “food intake in female volunteers” value in data set [9] was “decreased food intake”.

The values above are taken from patent publication US6962939B1, “Condensed indoline derivatives and their use as 5HT, in particular 5HT2C, receptor ligands” (Vernalis Research Limited, priority 1999, dated 2005).
